Results published in patent US20120115877A1, “Facially Amphiphilic Compounds, Compositions, And Uses Thereof In Treating Cancer” (POLYMEDIX, INC., priority 2010, published 2012).

Key:
Assay type in all cases: cell-based, human
Details in all cases: 10 μM
LOX IMVI = assay: NCI-60 screen, Melanoma
Experimental: (§1) Several compounds were tested at single concentrations (10 μM) against 59 different human tumor cell lines, representing leukemia, melanoma and cancers of the lung, colon, brain, ovary, breast, prostate, and kidney (see, Table 3). The human tumor cell lines of the cancer screening panel were grown in RPMI 1640 medium containing 5% fetal bovine serum and 2 mM L-glutamine. For a typical screening experiment, cells were inoculated into 96 well microtiter plates in 100 μL at plating densities ranging from 5,000 to 40,000 cells/well depending on the doubling time of individual cell lines. After cell inoculation, the microtiter plates were incubated at 37° C., 5% CO2, 95% air and 100% relative humidity for 24 hours prior to addition of the compounds.
(§2) After 24 hours, two plates of each cell line were fixed in situ with TCA, to represent a measurement of the cell population for each cell line at the time of drug addition (Tz). Compounds were solubilized in dimethyl sulfoxide at 400-fold the desired final maximum test concentration and stored frozen prior to use. At the time of drug addition, an aliquot of frozen concentrate was thawed and diluted to twice the desired final maximum test concentration with complete medium containing 50 μg/ml gentamicin. Additional four, 10-fold or ½ log serial dilutions were made to provide a total of five compound concentrations plus control. Aliquots of 100 μl of these different drug dilutions were added to the appropriate microtiter wells already containing 100 μl of medium, resulting in the required final compound concentrations.
(§3) Following drug addition, the plates were incubated for an additional 48 hours at 37° C., 5% CO2, 95% air, and 100% relative humidity. For adherent cells, the assay was terminated by the addition of cold TCA. Cells were fixed in situ by the gentle addition of 50 μl of cold 50% (w/v) TCA (final concentration, 10% TCA) and incubated for 60 minutes at 4° C. The supernatant was discarded, and the plates were washed five times with tap water and air dried. Sulforhodamine B (SRB) solution (100 μl) at 0.4% (w/v) in 1% acetic acid was added to each well, and plates were incubated for 10 minutes at room temperature. After staining, unbound dye was removed by washing five times with 1% acetic acid and the plates were air dried. Bound stain was subsequently solubilized with 10 mM trizma base, and the absorbance was read on an automated plate reader at a wavelength of 515 nm. For suspension cells, the methodology was the same except that the assay was terminated by fixing settled cells at the bottom of the wells by gently adding 50 μl of 80% TCA (final concentration, 16% TCA). Using the seven absorbance measurements (time zero, (Tz), control growth, (C), and test growth in the presence of drug at the five concentration levels (Ti)), the percentage growth was calculated at each of the compound concentrations levels. Percentage growth inhibition was calculated as:
(§4) [(Ti−Tz)/(C−Tz)]×100 for concentrations for which Ti>/=Tz
(§5) [(Ti−Tz)/Tz]×100 for concentrations for which Ti<Tz.
(§6) Three dose response parameters were calculated for each compound. Growth inhibition of 50% (GI50) was calculated from [(Ti−Tz)/(C−Tz)]×100=50, which is the compound concentration resulting in a 50% reduction in the net protein increase (as measured by SRB staining) in control cells during the compound incubation. The compound concentration resulting in total growth inhibition (TGI) was calculated from Ti=Tz. The LC50 (concentration of compound resulting in a 50% reduction in the measured protein at the end of the compound treatment as compared to that at the beginning) indicating a net loss of cells following treatment was calculated from [(Ti−Tz)/Tz]×100=−50. Values were calculated for each of these three parameters if the level of activity was reached; however, if the effect was not reached or was exceeded, the value for that parameter was expressed as greater or less than the maximum or minimum concentration tested.

MALME-3M = assay: NCI-60 screen, Melanoma
Experimental: as §1, §2, §3, §4, §5, §6

MDA-MB-435 = assay: NCI-60 screen, Melanoma
Experimental: as §1, §2, §3, §4, §5, §6

SK-MEL-28 = assay: NCI-60 screen, Melanoma
Experimental: as §1, §2, §3, §4, §5, §6

SK-MEL-2 = assay: NCI-60 screen, Melanoma
Experimental: as §1, §2, §3, §4, §5, §6

SK-MEL-5 = assay: NCI-60 screen, Melanoma
Experimental: as §1, §2, §3, §4, §5, §6

UACC-257 = assay: NCI-60 screen, Melanoma
Experimental: as §1, §2, §3, §4, §5, §6

UACC-62 = assay: NCI-60 screen, Melanoma
Experimental: as §1, §2, §3, §4, §5, §6

IGROV1 = assay: NCI-60 screen, Ovarian Cancer
Experimental: as §1, §2, §3, §4, §5, §6

NCI/ADR-RES = assay: NCI-60 screen, Ovarian Cancer
Experimental: as §1, §2, §3, §4, §5, §6

OVCAR-3 = assay: NCI-60 screen, Ovarian Cancer
Experimental: as §1, §2, §3, §4, §5, §6

OVCAR-4 = assay: NCI-60 screen, Ovarian Cancer
Experimental: as §1, §2, §3, §4, §5, §6

OVCAR-5 = assay: NCI-60 screen, Ovarian Cancer
Experimental: as §1, §2, §3, §4, §5, §6

OVCAR-8 = assay: NCI-60 screen, Ovarian Cancer
Experimental: as §1, §2, §3, §4, §5, §6

SK-OV-3 = assay: NCI-60 screen, Ovarian Cancer
Experimental: as §1, §2, §3, §4, §5, §6

A498 = assay: NCI-60 screen, Renal Cancer
Experimental: as §1, §2, §3, §4, §5, §6

ACHN = assay: NCI-60 screen, Renal Cancer
Experimental: as §1, §2, §3, §4, §5, §6

CAKI-1 = assay: NCI-60 screen, Renal Cancer
Experimental: as §1, §2, §3, §4, §5, §6

RXF 393 = assay: NCI-60 screen, Renal Cancer
Experimental: as §1, §2, §3, §4, §5, §6

SN12C = assay: NCI-60 screen, Renal Cancer
Experimental: as §1, §2, §3, §4, §5, §6

TK-10 = assay: NCI-60 screen, Renal Cancer
Experimental: as §1, §2, §3, §4, §5, §6

UO-31 = assay: NCI-60 screen, Renal Cancer
Experimental: as §1, §2, §3, §4, §5, §6

BT-549 = assay: NCI-60 screen, Breast Cancer
Experimental: as §1, §2, §3, §4, §5, §6

MCF7 = assay: NCI-60 screen, Breast Cancer
Experimental: as §1, §2, §3, §4, §5, §6

MDA-MB-468 = assay: NCI-60 screen, Breast Cancer
Experimental: as §1, §2, §3, §4, §5, §6

T-47D = assay: NCI-60 screen, Breast Cancer
Experimental: as §1, §2, §3, §4, §5, §6

SMILES | Percent Growth (LOX IMVI) | Percent Growth (MALME-3M) | Percent Growth (MDA-MB-435) | Percent Growth (SK-MEL-28) | Percent Growth (SK-MEL-2) | Percent Growth (SK-MEL-5) | Percent Growth (UACC-257) | Percent Growth (UACC-62) | Percent Growth (IGROV1) | Percent Growth (NCI/ADR-RES) | Percent Growth (OVCAR-3) | Percent Growth (OVCAR-4) | Percent Growth (OVCAR-5) | Percent Growth (OVCAR-8) | Percent Growth (SK-OV-3) | Percent Growth (A498) | Percent Growth (ACHN) | Percent Growth (CAKI-1) | Percent Growth (RXF 393) | Percent Growth (SN12C) | other results
N=C(N)NCCCCC(=O)Nc1cc(C(F)(F)F)cc(NC(=O)Nc2ccc(NC(=O)Nc3cc(C(F)(F)F)cc(NC(=O)CCCCNC(=N)N)c3OC3CCNC3)cc2)c1OC1CCNC1 (stereo not drawn) [Compound B] | 59.57% | 83.13% | 48.12% | 68.29% | 60.98% | 50.91% | 75.89% | 75.91% | 82.4% | 87.71% | 45.06% | 23.18% | 77.33% | 66.59% | 59.3% | 66.45% | 62.45% | 56.42% | 87.84% | 64.8% | Percent Growth (TK-10): 60.45%; Percent Growth (UO-31): 45.67%; Percent Growth (BT-549): 89.61%; Percent Growth (MCF7): 44.41%; Percent Growth (MDA-MB-468): 43.02%; Percent Growth (T-47D): 3.786%
N=C(N)NCCCCC(=O)Nc1cc(C(F)(F)F)cc(NC(=O)c2cc(C(=O)Nc3cc(C(F)(F)F)cc(NC(=O)CCCCNC(=N)N)c3SCCN)ncn2)c1SCCN [Compound C] | 50.64% | 63.62% | 35.56% | 61.39% | 54.29% | 34.55% | 61.31% | 55.93% | 51.71% | 55.27% | 37.56% | 38.79% | 75.78% | 39.11% | 82.66% | 69.5% | 53.08% | 47.81% | 78.06% | 65.97% | Percent Growth (TK-10): 38.3%; Percent Growth (UO-31): 73.64%; Percent Growth (BT-549): 96.67%; Percent Growth (MCF7): 10.27%; Percent Growth (MDA-MB-468): −53.05%; Percent Growth (T-47D): 14.59%
NCCc1cc(Br)cc(C#Cc2cccc(C#Cc3cc(Br)cc(CCN)c3)c2)c1 [Compound A] | −76.91% | 106.8% | −16.19% | 79.76% | 3.515% | 80.5% | 68.25% | 26.03% | −4.832% | 23.97% | −35.66% | −28.5% | 60.77% | −14.54% | 94.37% | 84.01% | −46.91% | 70.66% | −26.13% | 22.8% | Percent Growth (TK-10): 8.048%; Percent Growth (UO-31): 37.26%; Percent Growth (BT-549): 102%; Percent Growth (MCF7): −89.84%; Percent Growth (MDA-MB-468): −61.5%; Percent Growth (T-47D): 31.82%
NCCCc1cccc(-c2ccc3oc4ccc(-c5cccc(CCCN)c5)cc4c3c2)c1 [Compound G] | −75.08% | 105% | 62.07% | 102.1% | 72.07% | 89.15% | 44.84% | 72.92% | 42.2% | 83.66% | 18.54% | 54.91% | 64.48% | 33.74% | 94.45% | 92.26% | 36.71% | 56.68% | 65.05% | 82.22% | Percent Growth (TK-10): 57.59%; Percent Growth (UO-31): 84.95%; Percent Growth (BT-549): 101.5%; Percent Growth (MCF7): −44.29%; Percent Growth (MDA-MB-468): −3.51%; Percent Growth (T-47D): 80.44%
NCCSc1cc(SCCN)c(C(F)(F)F)cc1NC(=O)c1cc(C(=O)Nc2cc(C(F)(F)F)c(SCCN)cc2SCCN)ncn1 [Compound F] | 6.66% | 80.15% | 70.62% | 83.94% | 46.77% | 62.3% | 76.46% | 51.23% | 4.7% | 54.76% | −15.5% | −1.474% | 59.37% | 14.34% | 15.33% | 69.6% | 20.02% | 31.42% | 47.68% | 57.46% | Percent Growth (TK-10): 21.48%; Percent Growth (UO-31): 48.74%; Percent Growth (BT-549): 101.8%; Percent Growth (MCF7): −59.97%; Percent Growth (MDA-MB-468): −78.28%; Percent Growth (T-47D): 34.11%
c1cc(-c2ccc3sc4ccc(-c5ccnc(N6CCNCC6)c5)cc4c3c2)cc(N2CCNCC2)n1 [Compound E] | −80.29% | −4.679% | −84.03% | −51.91% | −73.48% | 63.85% | −70.37% | −41.07% | −43.57% | 3.12% | −94.47% | −87.74% | −46.66% | −61.04% | 51.66% | 75.11% | −69.18% | −13.76% | −70.65% | −16.99% | Percent Growth (TK-10): −52.46%; Percent Growth (UO-31): −41.12%; Percent Growth (BT-549): 98.88%; Percent Growth (MCF7): −89.85%; Percent Growth (MDA-MB-468): −82.28%; Percent Growth (T-47D): −12.27%
